Test results from patent US9133158B2, “Bicyclic dihydroisoquinoline-1-one derivatives” (Hoffmann-La Roche Inc., priority 2011, dated 2015).

How the values were obtained:
human CYP11B2 = target: T1, human CYP11B2 (Homo sapiens, UniProt P19099); assay: G-402 cellular enzyme assay, human CYP11B2 (aldosterone release, HTRF); assay type: cell-based; conditions: G-402 cells, 1 μM Deoxycorticosterone
T1 construct: expressed in transfected cells
T1 sequence (P19099 25-503): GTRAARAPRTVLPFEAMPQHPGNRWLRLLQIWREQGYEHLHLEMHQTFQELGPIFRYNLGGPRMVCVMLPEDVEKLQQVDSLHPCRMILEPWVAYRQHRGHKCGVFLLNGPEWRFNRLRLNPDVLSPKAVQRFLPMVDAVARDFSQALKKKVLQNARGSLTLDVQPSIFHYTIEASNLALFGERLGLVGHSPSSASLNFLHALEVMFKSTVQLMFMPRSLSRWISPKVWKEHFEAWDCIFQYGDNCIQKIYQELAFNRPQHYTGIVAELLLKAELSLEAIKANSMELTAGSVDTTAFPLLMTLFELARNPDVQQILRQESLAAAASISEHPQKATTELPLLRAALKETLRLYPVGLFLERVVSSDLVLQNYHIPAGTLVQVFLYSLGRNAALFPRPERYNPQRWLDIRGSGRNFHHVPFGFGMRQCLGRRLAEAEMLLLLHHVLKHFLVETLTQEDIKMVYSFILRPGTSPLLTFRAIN
Outline: (§1)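 G-402 cells stably expressing human CYP11B1 or CYP11B2 incubated 16 h in DMEM/F12 with 2.5% charcoal-treated FCS, compound, and 1 μM 11-deoxycortisol (B1) or 1 μM deoxycorticosterone (B2). Cortisol (B1) or aldosterone (B2) in supernatant measured by HTRF; EC50 from 4-parameter MMF fit.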

human CYP11B1 = target: T2, human CYP11B1 (Homo sapiens, UniProt P15538); assay: G-402 cellular enzyme assay, human CYP11B1 (cortisol release, HTRF); assay type: cell-based; conditions: G-402 cells, 1 μM Deoxycortisol
T2 construct: expressed in transfected cells
T2 sequence (P15538 25-503): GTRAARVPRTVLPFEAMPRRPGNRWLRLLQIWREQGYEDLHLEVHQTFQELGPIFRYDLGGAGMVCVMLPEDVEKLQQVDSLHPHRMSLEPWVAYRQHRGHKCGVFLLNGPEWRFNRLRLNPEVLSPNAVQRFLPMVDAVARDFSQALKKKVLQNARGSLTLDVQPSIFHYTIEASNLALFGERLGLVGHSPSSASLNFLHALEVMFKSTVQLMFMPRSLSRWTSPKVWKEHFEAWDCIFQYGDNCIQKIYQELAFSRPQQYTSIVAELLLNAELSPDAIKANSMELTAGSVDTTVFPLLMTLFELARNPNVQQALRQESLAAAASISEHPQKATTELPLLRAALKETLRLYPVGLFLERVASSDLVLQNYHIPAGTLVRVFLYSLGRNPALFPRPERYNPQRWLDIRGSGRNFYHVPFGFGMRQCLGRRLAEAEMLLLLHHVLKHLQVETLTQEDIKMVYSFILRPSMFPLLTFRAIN
Outline: as §1

SMILES: CS(=O)(=O)NC1CCCc2c1cncc2N1Cc2cc(Cl)ccc2C1=O (single isomer, unassigned) [Example 326, N-[(S or R)-4-(5-Chloro-1-oxo-1,3-dihydro-isoindol-2-yl)-5,6,7,8-tetrahydro-isoquinolin-8-yl]-methanesulfonamide]
- EC50 (human CYP11B2): 1870 nM
- EC50 (human CYP11B1): 6610 nM

SMILES: O=C1c2ccc(Cl)cc2CCN1c1cncc(Cc2ccc(Cl)c(Cl)c2)c1 [Example 216, 6-Chloro-2-[5-(3,4-dichloro-benzyl)-pyridin-3-yl]-3,4-dihydro-2H-isoquinolin-1-one]
- EC50 (human CYP11B2): 38.1 nM
- EC50 (human CYP11B1): 364 nM

SMILES: Cn1cc(Cc2cncc(N3CCc4cc(Cl)ccc4C3=O)c2)cn1 [Example 209, 6-Chloro-2-[5-(1-methyl-1H-pyrazol-4-ylmethyl)-pyridin-3-yl]-3,4-dihydro-2H-isoquinolin-1-one]
- EC50 (human CYP11B2): 0.9 nM
- EC50 (human CYP11B1): 14.7 nM

SMILES: CC1(C)c2cc(Cl)ccc2C(=O)N1c1cncc(CNC(=O)c2ccccn2)c1 [Example 434, Pyridine-2-carboxylic acid [5-(6-chloro-1,1-dimethyl-3-oxo-1,3-dihydro-isoindol-2-yl)-pyridin-3-ylmethyl]-amide]
- EC50 (human CYP11B2): 6.6 nM
- EC50 (human CYP11B1): 228 nM

SMILES: CN1CCCC1CCOCc1cncc(N2CCc3cc(Cl)ccc3C2=O)c1 (stereo not shown) [Example 196, 6-Chloro-2-{5-[2-(1-methyl-pyrrolidin-2-yl)-ethoxymethyl]-pyridin-3-yl}-3,4-dihydro-2H-isoquinolin-1-one]
- EC50 (human CYP11B2): 178 nM
- EC50 (human CYP11B1): 1030 nM

SMILES: Cn1ncnc1-c1cncc(N2CCc3cc(Cl)ccc3C2=O)c1 [Example 67, 6-Chloro-2-[5-(2-methyl-2H-[1,2,4]triazol-3-yl)-pyridin-3-yl]-3,4-dihydro-2H-isoquinolin-1-one]
- EC50 (human CYP11B2): 102 nM
- EC50 (human CYP11B1): 1200 nM

SMILES: CC(Nc1ccccc1)c1cncc(N2CCc3cc(Cl)ccc3C2=O)c1 (stereo not shown) [Example 278, 6-Chloro-2-[5-(1-phenylamino-ethyl)-pyridin-3-yl]-3,4-dihydro-2H-isoquinolin-1-one]
- EC50 (human CYP11B2): 6.1 nM
- EC50 (human CYP11B1): 34.4 nM

SMILES: CCS(=O)(=O)N1CC[C@H](Oc2cncc(N3C(=O)c4ccc(Cl)cc4C3(C)C)c2)C1 [Example 448, 5-Chloro-2-[5-((S)-1-ethanesulfonyl-pyrrolidin-3-yloxy)-pyridin-3-yl]-3,3-dimethyl-2,3-dihydro-isoindol-1-one]
- EC50 (human CYP11B2): 21.2 nM
- EC50 (human CYP11B1): 1980 nM

SMILES: CC(c1cncc(N2CCc3cc(Cl)ccc3C2=O)c1)N(C)C (stereo not shown) [Example 266, 6-Chloro-2-[5-(1-dimethylamino-ethyl)-pyridin-3-yl]-3,4-dihydro-2H-isoquinolin-1-one]
- EC50 (human CYP11B2): 44.4 nM
- EC50 (human CYP11B1): 276 nM

SMILES: CC(C)N1CCN(Cc2cncc(N3C(=O)c4ccc(Cl)cc4C3(C)C)c2)C1=O [Example 416, 5-Chloro-2-[5-(3-isopropyl-2-oxo-imidazolidin-1-ylmethyl)-pyridin-3-yl]-3,3-dimethyl-2,3-dihydro-isoindol-1-one]
- EC50 (human CYP11B2): 6 nM
- EC50 (human CYP11B1): 723 nM

SMILES: CS(=O)(=O)NCc1cncc(N2CCc3cc(Cl)ccc3C2=O)c1 [Example 152, N-[5-(6-Chloro-1-oxo-3,4-dihydro-1H-isoquinolin-2-yl)-pyridin-3-ylmethyl]-methanesulfonamide]
- EC50 (human CYP11B2): 295 nM
- EC50 (human CYP11B1): 11600 nM

SMILES: CS(=O)(=O)NC1CCCc2c1cncc2N1CCc2cc(Cl)ccc2C1=O (single isomer, unassigned) [Example 325, N-((R or S)-6-Chloro-1-oxo-3,4,5′,6′,7′,8′-hexahydro-1H-[2,4′]biisoquinolinyl-8′-yl)-methanesulfonamide]
- EC50 (human CYP11B2): 59.2 nM
- EC50 (human CYP11B1): 4490 nM

SMILES: O=C1c2ccc(Cl)cc2CCN1c1cncc(-c2ccc(Cl)c(F)c2)c1 [Example 240, 6-Chloro-2-[5-(4-chloro-3-fluoro-phenyl)-pyridin-3-yl]-3,4-dihydro-2H-isoquinolin-1-one]
- EC50 (human CYP11B2): 115 nM
- EC50 (human CYP11B1): 3270 nM

SMILES: O=C1c2ccc(Cl)cc2CCN1c1cncc(Cn2ccnc2C(F)(F)F)c1 [Example 189, 6-Chloro-2-[5-(2-trifluoromethyl-imidazol-1-ylmethyl)-pyridin-3-yl]-3,4-dihydro-2H-isoquinolin-1-one]
- EC50 (human CYP11B2): 55.3 nM
- EC50 (human CYP11B1): 710 nM

SMILES: O=C1c2ccc(Cl)cc2CCN1c1cncc(Cn2ncc3ccccc32)c1 [Example 182, 6-Chloro-2-(5-indazol-1-ylmethyl-pyridin-3-yl)-3,4-dihydro-2H-isoquinolin-1-one]
- EC50 (human CYP11B2): 27.5 nM
- EC50 (human CYP11B1): 306 nM

SMILES: O=C1c2ccc(Cl)cc2CCN1c1cncc(COCC(F)(F)F)c1 [Example 202, 6-Chloro-2-[5-(2,2,2-trifluoro-ethoxymethyl)-pyridin-3-yl]-3,4-dihydro-2H-isoquinolin-1-one]
- EC50 (human CYP11B2): 65.3 nM
- EC50 (human CYP11B1): 473 nM

SMILES: CN1CCN(Cc2cncc(N3C(=O)c4ccc(Cl)cc4C3(C)C)c2)C1=O [Example 414, 5-Chloro-3,3-dimethyl-2-[5-(3-methyl-2-oxo-imidazolidin-1-ylmethyl)-pyridin-3-yl]-2,3-dihydro-isoindol-1-one]
- EC50 (human CYP11B2): 30.2 nM
- EC50 (human CYP11B1): 2040 nM

SMILES: CCS(=O)(=O)N(C)Cc1cncc(N2C(=O)c3ccc(Cl)cc3C2(C)C)c1 [Example 395, Ethanesulfonic acid [5-(6-chloro-1,1-dimethyl-3-oxo-1,3-dihydro-isoindol-2-yl)-pyridin-3-ylmethyl]-methyl-amide]
- EC50 (human CYP11B2): 8 nM
- EC50 (human CYP11B1): 679 nM

SMILES: CCC1c2cc(Cl)ccc2C(=O)N1c1cncc(F)c1 (single isomer, unassigned) [Example 310, (S or R)-5-Chloro-3-ethyl-2-(5-fluoro-pyridin-3-yl)-2,3-dihydro-isoindol-1-one]
- EC50 (human CYP11B2): 16.5 nM
- EC50 (human CYP11B1): 3970 nM

SMILES: CCS(=O)(=O)NC1CCCc2c1cncc2N1Cc2cc(Cl)ccc2C1=O (racemic) [Example 315, Ethanesulfonic acid [4-(5-chloro-1-oxo-1,3-dihydro-isoindol-2-yl)-5,6,7,8-tetrahydro-isoquinolin-8-yl]-amide]
- EC50 (human CYP11B2): 1050 nM
- EC50 (human CYP11B1): 31000 nM

SMILES: CCC1c2cc(Cl)ccc2C(=O)N1c1cncc(OC(F)F)c1 (stereo not shown) [Example 282, 5-Chloro-2-(5-difluoromethoxy-pyridin-3-yl)-3-ethyl-2,3-dihydro-isoindol-1-one]
- EC50 (human CYP11B2): 42.9 nM
- EC50 (human CYP11B1): 475 nM

SMILES: CN(C)C(=O)c1cncc(N2CCc3cc(Cl)ccc3C2=O)c1 [Example 41, 5-(6-Chloro-1-oxo-3,4-dihydro-1H-isoquinolin-2-yl)-N,N-dimethyl-nicotinamide]
- EC50 (human CYP11B2): 3750 nM
- EC50 (human CYP11B1): 6080 nM

SMILES: CCC(=O)N[C@H]1CCc2c1cncc2N1C(=O)c2ccc(Cl)cc2[C@H]1C (single isomer, unassigned) [Example 377, N-[(S or R)-4-((R or S)-5-Chloro-3-methyl-1-oxo-1,3-dihydro-isoindol-2-yl)-6,7-dihydro-5H-[2]pyrindin-7-yl]-propionamide]
- EC50 (human CYP11B2): 3.4 nM
- EC50 (human CYP11B1): 448 nM

SMILES: CCS(=O)(=O)N1CC(Oc2cncc(N3C(=O)c4ccc(Cl)cc4C3(C)C)c2)C1 [Example 453, 5-Chloro-2-[5-(1-ethanesulfonyl-azetidin-3-yloxy)-pyridin-3-yl]-3,3-dimethyl-2,3-dihydro-isoindol-1-one]
- EC50 (human CYP11B2): 5.1 nM
- EC50 (human CYP11B1): 876 nM

SMILES: CC1(C)c2cc(Cl)ccc2C(=O)N1c1cncc(CN2CCCCS2(=O)=O)c1 [Example 415, 5-Chloro-2-[5-(1,1-dioxo-1λ6-[1,2]thiazinan-2-ylmethyl)-pyridin-3-yl]-3,3-dimethyl-2,3-dihydro-isoindol-1-one]
- EC50 (human CYP11B2): 5.5 nM
- EC50 (human CYP11B1): 484 nM

SMILES: O=C1c2ccc(Cl)cc2CCN1c1cncc(C(O)C2CC2)c1 (stereo not shown) [Example 20, 6-Chloro-2-[5-(cyclopropyl-hydroxy-methyl)-pyridin-3-yl]-3,4-dihydro-2H-isoquinolin-1-one]
- EC50 (human CYP11B2): 85.9 nM
- EC50 (human CYP11B1): 1050 nM

SMILES: CCC(=O)N[C@@H]1CCCc2c1cncc2N1C(=O)c2ccc(Cl)cc2[C@H]1C (single isomer, unassigned) [Example 361, N-[(R or S)-4-((R or S)-5-Chloro-3-methyl-1-oxo-1,3-dihydro-isoindol-2-yl)-5,6,7,8-tetrahydro-isoquinolin-8-yl]-propionamide]
- EC50 (human CYP11B2): 65.6 nM
- EC50 (human CYP11B1): 9410 nM

SMILES: O=C1c2ccc(Cl)cc2C(C2CC2)N1c1cccnc1 (stereo not shown) [Example 301, 5-Chloro-3-cyclopropyl-2-pyridin-3-yl-2,3-dihydro-isoindol-1-one]
- EC50 (human CYP11B2): 161 nM
- EC50 (human CYP11B1): 32500 nM

SMILES: CC(O)c1ccncc1N1CCc2cc(Cl)ccc2C1=O (stereo not shown) [Example 55, 6-Chloro-2-[4-(1-hydroxy-ethyl)-pyridin-3-yl]-3,4-dihydro-2H-isoquinolin-1-one]
- EC50 (human CYP11B2): 343 nM
- EC50 (human CYP11B1): 9850 nM
